Experimental findings from publication PMC12024264, “Frog Skin Peptides Hylin-a1, AR-23, and RV-23: Promising Tools Against Carbapenem-Resistant Escherichia coli and Klebsiella pneumoniae Infections” (Antibiotics, 2025) are described below.

Series [1] relates to HaCaT cells. Kind of series: MTT cytotoxicity assay on HaCaT keratinocytes. The series is classed as cell-based, human. As to conditions: for 50% cytotoxic concentration (CC50): HaCaT keratinocytes, 20 h exposure, 0.39 to 100 μM; for CC50 obtained by the fitting of the curves: HaCaT, 20 h, Figure 1. The protocol:
To evaluate their safety profile, cytotoxicity assays were performed on HaCaT keratinocytes. Cells were exposed for 20 h to peptides at doses ranging from 0.39 to 100 μM.
Figure 1 Dose–response curves for the AMPs against HaCaT cell line and CC50 (reported in μM), HillSlope, and R^2 values were obtained by the fitting of the curves. The viability effect of Hylin-a1, AR-23, and RV-23 was analyzed on HaCaT cells. The cell monolayer was treated with serial dilutions of peptides for 20 h. Untreated cells were used as a positive control, while dimethyl sulfoxide (DMSO) was used as a negative control. HillSlope: The measure of the steepness of the dose–response curve. […] R^2 (coefficient of determination) indicates how well the model fits the data. Ranges from 0 to 1, with 1 representing a perfect fit.
The cytotoxic effect of peptides was examined using 3-(4,5 dimethylthiazol-2-yl)-2,5-diphenyltetrazolium bromide (MTT), as previously described. Cell viability, expressed as a percentage, was calculated in relation to the viability of untreated cells (+). DMSO was used as negative control (−). The human keratinocyte cell line HaCaT (Cell Lines Service, CLS-, Eppelheim, Germany) was used as a cellular model to evaluate the peptides’ cytotoxicity. HaCaT cells were grown in Dulbecco’s Modified Eagle Medium (DMEM) with 4.5 g/L of glucose (Microtech, Naples, Italy) supplemented with an antibiotic solution 100× (Himedia, Naples, Italy) and 10% Fetal Bovine Serum (FBS, Microtech).

Series [2] relates to E. coli 1376. The note with it: carbapenemase NDM (class B), rectal swab, N/D = no antibacterial activity detected; for MIC: microdilution, 37 °C, 20 h. The protocol: (§1) Each strain was grown in Mueller Hinton Broth (MH Broth), and 5 × 10^5 CFU/mL was used to evaluate antibacterial activity. Clinical carbapenem-resistant K. pneumoniae and E. coli isolates were collected at the AOU of Virology and Microbiology of the University of Campania “Luigi Vanvitelli”.
(§2) The antimicrobial activity of Hylin-a1, AR-23, and RV-23 was investigated using a microdilution assay as reported by the National Committee on Clinical Laboratory Standards (NCCLS) guidelines against a broad spectrum of Gram-negative bacteria. […] In 96-well, the standardized bacterial inoculum (5 × 10^5 colony forming units, CFU/mL) was inoculated together with AMPs and incubated at 37 °C for 20 h. After the time of incubation, optical density (OD) was measured at TECAN, and data were expressed as a percentage of inhibition. In addition to assessing the MIC values, the bactericidal effect was also studied as reported elsewhere.
For orientation: Dilution methods test growth across graded concentrations, often in twofold steps.

Series [3] deals with E. coli 1441. The note with it: carbapenemase KPC (class A), rectal swab, N/D = no antibacterial activity detected; for MIC: microdilution, 37 °C, 20 h. The protocol: as §1, §2
Series [4] relates to E. coli 2267. As to conditions: carbapenemase NDM (class B), rectal swab, N/D = no antibacterial activity detected; for MIC: microdilution, 37 °C, 20 h. The protocol:
as §1, §2

Series [5] relates to E. coli 3140. The note with it: carbapenemase OXA-48 (class D), urine; microdilution, 37 °C, 20 h; N/D = no antibacterial activity detected. How it is done: as §1, §2
Series [6] deals with E. coli 716. As to conditions: carbapenemases IMP1, VIM, NDM (class B), urine, N/D = no antibacterial activity detected; for MIC: microdilution, 37 °C, 20 h. The protocol: as §1, §2
In series [7] the test system is K. pneumoniae 1711. As to conditions: carbapenemase KPC (class A), rectal swab, N/D = no antibacterial activity detected; for MIC: microdilution, 37 °C, 20 h. How it is done:
as §1, §2

In series [8] the test system is K. pneumoniae 1745. The note with it: carbapenemase KPC (class A), ulcer, N/D = no antibacterial activity detected; for MIC: microdilution, 37 °C, 20 h. How it is done:
as §1, §2

The test system of series [9] is K. pneumoniae 1746. As to conditions: carbapenemase VIM (class B), rectal swab; microdilution, 37 °C, 20 h; N/D = no antibacterial activity detected. The protocol:
as §1, §2

Series [10] concerns K. pneumoniae ATCC 10031. Put plainly: Time-kill assay. The series is classed as cell-based, Klebsiella pneumoniae. How it is done: This in vitro method allows for assessing the kinetics of bacterial killing by peptides over time. […] Specifically, at each time point, 50 μL aliquots of the bacterial–peptide mixtures were collected and plated on agar (see Materials and Methods for further details). Following incubation, colony-forming units (CFUs) were counted and the killing rate of each peptide concentration was calculated (Figure 2).
Figure 2 Evaluation of the kinetic-killing effect of Hylin-a1, AR-23, and RV-23 against K. pneumoniae and E. coli. […] Untreated bacteria was used as control negative (CTR- in black).
Using the same conditions as the MIC assay, a time–kill test was performed to monitor bacterial growth over time. […] Finally, bacterial colonies were counted, and the CFU/mL was calculated.

The test system of series [11] is K. pneumoniae ATCC 10031. Kind of series: Biofilm initial cell attachment assay. The series is classed as cell-based, Klebsiella pneumoniae. The note with it: 2 h; for concentration of total reduction in biofilm attachment (antibiofilm MIC): initial cell attachment, 37 °C, peptides 50-1.56 μM, absorbance 570 nm. How it is done:
(§3) We also investigated the ability of peptides to interfere with biofilm using three different assays (refer to the Section 4) against K. pneumonia and E. coli.
(§4) Figure 3 The effect of Hylin-a1, AR-23, and RV-23 on the initial cell attachment of biofilm formation. […] Statistical analysis was performed by One-way ANOVA followed by Dunnett’s multiple comparisons test.
(§5) The anti-biofilm activity of peptides was evaluated against E. coli and K. pneumoniae ATCC strains. Bacterial cultures were grown overnight, then diluted to an OD600 of 0.1 in MH broth supplemented with 1% (v/v) glucose. A 100 μL aliquot of the bacterial suspension was combined with an equal volume of peptides at non-cytotoxic concentrations in a 96-well plate and incubated at 37 °C for 2 h. Following incubation, non-adherent planktonic cells were removed by washing with phosphate-buffered saline (PBS, Microtech), and adherent cells were incubated with MTT solution for 3 h at 37 °C. Additionally, adherent cells were collected, resuspended in PBS, and plated on agar for viable cell counting. Serial dilutions were performed for each peptide, and CFU/mL were determined after 20 h of incubation at 37 °C (Figure S2). Absorbance was measured at 570 nm to evaluate adhesion percentage.

The subject of series [12] is E. coli ATCC 25992. Put plainly: Biofilm initial cell attachment assay. The series is classed as cell-based, Escherichia coli. The note with it: 2 h; for concentration of total reduction in biofilm attachment (antibiofilm MIC): initial cell attachment, 37 °C, peptides 50-1.56 μM, absorbance 570 nm. The protocol:
as §3, §4, §5

Where no end group is shown, it is not given here. A value given as a limit tells only on which side of the number the result lay.

By MBC is commonly meant the smallest concentration meeting the test's criterion for killing. Higher therefore signals weaker bactericidal potency. The term MIC denotes the least concentration at which growth counts as inhibited. A high value points to weaker potency.

As to RIGVLLARLPKLFSLFKLMGKKV-NH2 [RV-23], in series [1], the “50% cytotoxic concentration (CC50)” value was 100 µM. Besides, the “CC50 obtained by the fitting of the curves” value in series [1] was determined as 101.8 µM. In addition, the MBC in series [2] is 6.25 µM; in series [3], 12.5 µM; in series [4] it was 12.5 µM; in series [6], 25 µM; in series [7], 12.5 µM; in series [8], 25 µM. Besides, the MIC in [2] came to 6.25 µM; in [3] it was 6.25 µM; in [4] it was 12.5 µM; in series [5], 25 µM; in series [6], 25 µM; in [7], 12.5 µM. For the same substance, the MIC in series [8] and in series [9] was 12.5 µM throughout. Moreover, in series [10], the “time to significant reduction in bacterial viability / bactericidal effect” value was at most 2 h. The “concentration of total reduction in biofilm attachment (antibiofilm MIC)” value in series [11] came to 50 µM; in series [12], 12.5 µM.
On to IFGAILPLALGALKNLIK-NH2 [Hylin-a1], for which the “50% cytotoxic concentration (CC50)” value in series [1] came out at 100 µM. In addition, the “CC50 obtained by the fitting of the curves” value in series [1] was determined as 102.6 µM. For the same substance, the MIC amounted to 25 µM in series [2]; 50 µM in [3]; 25 µM in [4]; 50 µM in series [5]; 25 µM in series [6]; 25 µM in series [7]. For the same substance, the figures for the MIC in series [8] and in [9] were 50 µM and 25 µM, respectively. Moreover, the MBC in series [4], in series [7] and in series [8] was 50 µM each time. Besides, in series [10], the “bacterial killing in time-kill assay” value was “kills bacteria”. The “reduction of biofilm (initial attachment)” value in series [11] (at 50 μM) and in series [12] (at 50 μM) was 80–100% throughout. The “concentration of total reduction in biofilm attachment (antibiofilm MIC)” value in series [11] and in [12] was 50 µM in each case.
